pEC50: −log10 of the molar value. Read-outs that look alike come from different tables or passages of the source.
Columns and labels:
RAW-Difluo™ mLC3 Cells = assay: Autophagy induction (puncta formation) in RAW-Difluo mLC3 reporter cells; assay type: cell-based, murine; conditions: 8 hours
Protocol: The ability of the CDNs of the present invention, to activate STING-dependent autophagy induction was measured using the murine autophagy reporter cell line obtained directly from InvivoGen.
RAW-Difluo™ mLC3 Cells are autophagy reporter cells derived from the murine RAW 264.7 macrophage cell line, a physiologically relevant cell line. They express an RFP::GFP::LC3 fusion protein, RFP-GFP-LC3, in which the N-terminus of murine LC3 is fused to two fluorescent reporter proteins: a RFP (acid-stable) and a GFP (acid-sensitive). In these cells, the RFP-GFP pair enables monitoring of autophagic flux in real time by detecting the appearance of green (GFP-LC3) and/or red (RFP-LC3) puncta by fluorescence microscopy.
Approximately 50,000 cells (500 µL) per well of 24-well plates were seeded 24 h before treatment. The next day, the cells were treated either with a solution containing a CDN at one of three different concentrations (1 µg/mL, 3 µg/mL or 10 µg/mL) or with Rapamycin at 25 µM, or were left untreated. The plates were incubated at 37 °C in a CO2 incubator for 8 hours. Fluorescence intensity and puncta formation was monitored at λexc = 480 nm and λem = 505 nm.

IRF pathway [1] = target: T1, IRF pathway (Homo sapiens, UniProt Q86WV6); assay: ISG54 (IRF pathway) Lucia reporter assay in THP-1-Dual cells, Type I IFN induction; assay type: cell-based
Description: The IRF pathway has been investigated by using the two following ISG reporter cell lines obtained directly from InvivoGen. They are described here and provided with their corresponding InvivoGen catalog code.

NF-κB pathway = NF-κB pathway (Homo sapiens, UniProt Q86WV6); assay: NF-κB SEAP reporter assay in THP1 Dual cells; assay type: cell-based
STING = assay: STING-dependent cytokine induction, overall activity in words (THP1 Dual in vitro and whole blood ex vivo, Tables 2 to 4); assay type: cell-based, human; conditions: comment on Tables 2 and 3
Description: (§1) . The ex vivo (whole blood assay) cytokine-induction activity of a representative set these cyclic dinucleotides is reported here with the same protocol described in Example 2.2.
as §1, §1

[2] = system: Panc02 (murine pancreatic tumor cell line); assay: Murine orthotopic Panc02 pancreatic cancer model, i.p. monotherapy; assay type: in vivo, mouse; conditions: for final mean tumor volume: Panc02, 1 mg/Kg i.p. once daily, 4 days a week for 3 weeks; for final mean tumor volume / incidence of metastasis: day 28; for tumor growth / incidence of metastasis: Panc02, 1 mg/Kg i.p.; for tumor growth: compared with control group
Description: • Species evaluated: mouse • Tumor model: Panc02 (murine pancreatic tumor cell line) • Treatments tested: CL735 and CL742 (monotherapy) • Clinical parameters evaluated: tumor volume, tumor weight and incidence of metastasis • Administration routes evaluated: intraperitoneal (i.p.) injection
On Day 1, […] (C57BL/6; male) received an orthotopic injection of Panc02 tumor cells (1 x 106) in the pancreas. On Day 8, the mice were then divided into two groups of eight each (treated groups) and one group of five (control group). Each group received a different treatment, as outlined below: • Group 1 (control): saline (by i.p. injection) once daily, 4 days a week for 3 weeks; • Group 2: CL735 at 1 mg/Kg (by i.p. injection) once daily, 4 days a week for 3 weeks; • Group 3: CL742 at 1 mg/Kg (by i.p. injection) once daily, 4 days a week for 3 weeks
Left: Weight of individual Panc02 tumors at day 28 by treatment group. Right: Mean tumor weight at day 28, sd and sem for each group. • Figure 9. Left: Volume of individual Panc02 tumors at day 28 by treatment group. Right: Mean tumor volume at day 28, sd and sem for each group. • Figure 10. Incidence of metastasis in a murine model of Panc02 tumors. The mice were treated with saline (control), CL735 or CL742 monotherapies and metastases number was recorded at day 28. On the right, table indicated the mean of metastases number on animals that have survived by day 28, sd and sem for each group.

IRF pathway [3] = target: T1, IRF pathway; assay: ISG54 reporter assay in THP-1-Dual KO-STING cells; assay type: cell-based; conditions: THP1-Dual KO-STING cells (Figures 2A and 2B)
Description: THP-1-Dual™-KO-STING (InvivoGen catalog code: thpd-kostg): These cells were generated from the human monocyte THP-1-Dual™, through stable homozygote knockout of the STING gene. Bialielic STING knockout was verified by functional assays, PCR and DNA sequencing.

[4] = system: B16 (murine melanoma tumor cell line); assay: Murine subcutaneous B16 melanoma model, i.t. monotherapy; assay type: in vivo, mouse
Description: • Species evaluated: mouse • Tumor model: B16 (murine melanoma tumor cell line) • Treatments tested: CL742 and CL747 (monotherapy) • Clinical parameters evaluated: tumor volume • Administration routes evaluated: intratumoral (i.t.) injection
On Day 1, 15 mice (C57BL/6; male) received a subcutaneous injection of B16 tumor cells (1 x 105) on the right flank. On Day 13, the mice were then divided into two groups of five each (treated groups) and one group of five (control group). Each group received a different treatment, as outlined below: • Group 1 (control): saline (i.t. injection) at days 13 16 and 20; • Group 2: CL742 at 1.25 mg/Kg (i.t. injection) at days 13 16 and 20; • Group 3: CL747 at 1.25 mg/Kg (i.t. injection) at days 13 16 and 20
The tumor volume and animal weight were monitored every 2 days and animals were euthanized at Day 28 (Figure 11).

NF-κB pathway, sequence (Q86WV6 whole entry): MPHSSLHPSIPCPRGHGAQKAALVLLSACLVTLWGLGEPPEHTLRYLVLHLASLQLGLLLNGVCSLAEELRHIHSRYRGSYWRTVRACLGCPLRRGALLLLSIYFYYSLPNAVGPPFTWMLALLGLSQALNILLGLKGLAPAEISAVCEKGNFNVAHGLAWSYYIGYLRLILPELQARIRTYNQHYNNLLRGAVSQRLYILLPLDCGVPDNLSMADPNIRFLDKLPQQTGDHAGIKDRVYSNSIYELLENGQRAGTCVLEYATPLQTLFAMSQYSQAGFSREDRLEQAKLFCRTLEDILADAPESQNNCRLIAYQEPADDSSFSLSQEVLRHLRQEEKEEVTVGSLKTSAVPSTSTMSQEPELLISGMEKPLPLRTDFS
T1 sequence (Q86WV6 whole entry): as above

Molecule | Autophagy level (RAW-Difluo™ mLC3 Cells; 1 µg/mL) | Autophagy level (RAW-Difluo™ mLC3 Cells; 3 µg/mL) | Autophagy level (RAW-Difluo™ mLC3 Cells; 10 µg/mL) | activity (ranking between compounds) (STING) | further results
O=c1[nH]cnc2c1ncn2[C@@H]1O[C@@H]2COP(=O)(O)O[C@H]3[C@@H](F)[C@H](n4cnc5c(=O)[nH]cnc54)O[C@@H]3COP(=O)(O)O[C@H]2[C@H]1F [CL626, reference compound] | ++ (50% of cells have puncta) | ++ (50% of cells have puncta) | ++ (50% of cells have puncta) | – | –
Nc1ncnc2c1ncn2[C@@H]1O[C@@H]2COP(=O)(O)O[C@@H]3[C@@H](F)[C@@H](COP(=O)(O)O[C@H]2[C@H]1F)O[C@H]3n1cnc2c(N)ncnc21 [CL710, (2',3')c-[xylo3'F3'dAMP-2'FdAMP]] | – | – | – | – | pEC50 (IRF pathway [1]; THP1 Dual cells, ISG read-out): < 4.30; pEC50 (NF-κB pathway; NFκB read-out): < 4.30
Nc1ncnc2c1ncn2[C@@H]1O[C@@H]2COP(=O)(O)O[C@@H]3[C@@H](F)[C@@H](COP(=O)(S)O[C@H]2[C@H]1F)O[C@H]3n1cnc2c(N)ncnc21 (some centres unmarked) [CL714, (2',3')c-[xylo3'F3'dAM(PS)-2'FdAMP]] | – | – | – | CL714 > CL766 | pEC50 (IRF pathway [1]; THP1 Dual cells, ISG read-out): 5.32; pEC50 (NF-κB pathway; NFκB read-out): 4.83
CC(C)(C)C(=O)OCn1cnc2c(ncn2[C@@H]2O[C@@H]3COP(=O)(O)O[C@H]4[C@@H](F)[C@H](n5cnc6c(=O)[nH]cnc65)O[C@@H]4COP(=O)(O)O[C@H]3[C@H]2F)c1=O [CL733, c-[2'FdI(POM)MP-2'FdIMP]] | +/- (10% of cells have puncta) | +/- (10% of cells have puncta) | + (25% of cells have puncta) | – | –
O=c1[nH]cnc2c1ncn2[C@@H]1O[C@@H]2COP(=O)(S)O[C@H]3[C@@H](F)[C@H](n4cnc5c(=O)[nH]cnc54)O[C@@H]3COP(=O)(S)O[C@H]2[C@H]1F (stereo partly drawn) [CL735, c-di[2'FdIMP(S)]] | ++ (50% of cells have puncta) | ++ (50% of cells have puncta) | ++ (50% of cells have puncta) | – | final mean tumor volume [2]: 150 +/- 69 mm3; tumor growth [2]: significant reduction in tumor growth; incidence of metastasis [2]: no metastases were found; production of Type I interferons (IRF pathway [3]): did not induced production of Type I interferons
O=c1[nH]cnc2c1ncn2[C@@H]1O[C@@H]2COP(=O)(O)O[C@@H]3[C@@H](F)[C@@H](COP(=O)(O)O[C@H]2[C@H]1F)O[C@H]3n1cnc2c(=O)[nH]cnc21 [CL742, (2',3')c-[3'F3'XylodIMP-2'FdIMP]] | +/- (10% of cells have puncta) | +/- (10% of cells have puncta) | + (25% of cells have puncta) | – | mean tumor volume ([4]; B16, 1.25 mg/Kg i.t. at days 13 16 and 20, day 20): 779 +/- 816 mm3; tumor growth ([4]; B16, 1.25 mg/Kg i.t., compared with control group): significant reduction in tumor growth; final mean tumor volume [2]: 47 +/- 29 mm3; tumor growth [2]: significant reduction in tumor growth; incidence of metastasis [2]: no metastases were found; production of Type I interferons (IRF pathway [3]): did not induced production of Type I interferons
CC(C)(C)C(=O)OCSP1(=O)OC[C@H]2O[C@@H](n3cnc4c(N)ncnc43)[C@H](F)[C@@H]2OP(=O)(SCOC(=O)C(C)(C)C)OC[C@H]2O[C@@H](n3cnc4c(=O)[nH]c(N)nc43)[C@H](O1)[C@H]2F (some centres unmarked) [CL751, (2',3')c-[3'F3'XylodGM(PS-POM)-2'FdAM(PS-POM)]] | – | – | – | – | pEC50 (IRF pathway [1]; read-out: EC50 THP1 Dual ISG): 6.03; pEC50 (NF-κB pathway; read-out: EC50 THP1 Dual NFκB): 5.60
CC(C)(C)C(=O)OCSP1(=O)OC[C@H]2O[C@@H](n3cnc4c(N)ncnc43)[C@H](F)[C@@H]2OP(=O)(SCOC(=O)C(C)(C)C)OC[C@H]2O[C@@H](n3cnc4c(N)ncnc43)[C@H](O1)[C@H]2F (some centres unmarked) [CL760, (2',3')c-[xylo3'F3'dAM(PS-POM)-2'FdAM(PS-POM)]] | – | – | – | – | pEC50 (IRF pathway [1]; read-out: EC50 THP1 Dual ISG): 6.48; pEC50 (NF-κB pathway; read-out: EC50 THP1 Dual NFκB): 5.75
Nc1nc(Cl)nc2c1ncn2[C@H]1C[C@@H]2OP(=O)(O)OC[C@H]3O[C@@H](n4cnc5c(=O)[nH]cnc54)[C@H](F)[C@@H]3OP(=O)(O)OC[C@H]2O1 [CL761, (3'3')c-(2CIdAMP-2'FdIMP)] | – | – | – | CL761 < CL760 | –
CC(C)(C)C(=O)OCn1cnc2c(ncn2[C@@H]2O[C@@H]3COP(=O)(O)O[C@H]4C[C@H](n5cnc6c(N)nc(Cl)nc65)O[C@@H]4COP(=O)(O)O[C@H]3[C@H]2F)c1=O [CL762, (3'3')c-[2CIdAMP-2'FdI(POM)MP]] | – | – | – | CL762 < CL760 | –
Nc1ncnc2c1ncn2[C@@H]1O[C@@H]2COP(=O)(S)O[C@@H]3[C@@H](F)[C@@H](COP(=O)(S)O[C@H]2[C@H]1F)O[C@H]3n1cnc2c(N)ncnc21 (some centres unmarked) [CL766, (2',3')c-[xylo 3'F3'dAM(PS)-2'FdAM(PS)]] | – | – | – | – | pEC50 (IRF pathway [1]; THP1 Dual cells, ISG read-out): < 4.30; pEC50 (NF-κB pathway; NFκB read-out): < 4.30
Nc1ncnc2c1ncn2[C@@H]1O[C@@H]2COP(=O)(O)O[C@@H]3[C@@H](F)[C@@H](COP(=O)(S)O[C@H]2[C@H]1F)O[C@H]3n1cnc2c(=O)[nH]cnc21 (some centres unmarked) [CL781, (2',3')c-[3'F3'XylodIMP-2'FdAM(PS)]] | – | – | – | CL781 >> CL764 | –
CC(C)(C)C(=O)OCSP1(=O)OC[C@H]2O[C@@H](n3cnc4c(=O)[nH]cnc43)[C@H](OP(=O)(O)OC[C@H]3O[C@@H](n4cnc5c(N)ncnc54)[C@H](F)[C@@H]3O1)[C@H]2F (some centres unmarked) [CL784, (2',3')c-[3'F3'XylodIMP-2'FdAM(PS-POM)]] | – | – | – | CL784 > CL781 | –
CO[C@H]1C[C@@H]2CC[C@@H](C)[C@@](O)(O2)C(=O)C(=O)N2CCCC[C@H]2C(=O)O[C@H]([C@H](C)C[C@@H]2CC[C@@H](O)[C@H](OC)C2)CC(=O)[C@H](C)/C=C(\C)[C@@H](O)[C@@H](OC)C(=O)[C@H](C)C[C@H](C)/C=C/C=C/C=C/1C [Rapamycin, reference compound] | – | – | – | – | Autophagy level (RAW-Difluo™ mLC3 Cells; 25 µM): ++++ (90% of cells have puncta)
O=c1[nH]cnc2c1ncn2[C@@H]1O[C@@H]2COP(=O)(O)O[C@H]3[C@@H](O)[C@H](n4cnc5c(=O)[nH]cnc54)O[C@@H]3COP(=O)(O)O[C@H]2[C@H]1O [cdiIMP, reference compound] | + (25% of cells have puncta) | ++ (50% of cells have puncta) | +++ (75% of cells have puncta) | – | –
(2',3')c-[3'F3'XylodIM(PS)-2'FdI(POM)MP] [CL746] | ++ (50% of cells have puncta) | ++ (50% of cells have puncta) | ++ (50% of cells have puncta) | – | –

From EP3505527A1, “CYCLIC DINUCLEOTIDES FOR CYTOKINE INDUCTION” (Invivogen, priority 2017, dated 2019)
